The values that follow come from patent US20220323406A1, “METHODS AND COMPOSITIONS FOR DIFFERENTIATING STEM CELLS” (Massachusetts Institute of Technology, priority 2019, published 2022).

In test [1] the test system is ENR+CD organoids (ISC to Paneth cell differentiation). Briefly: Primary screen: CCh-stimulated lysozyme secretion LYZ.S, 2.5-D 384-well ENR+CD organoid differentiation. In kind it is cell-based, mouse. The conditions noted are these: primary screen; for Dose.FC.LYZ.S: FC relative to plate median. The source says: (§1) High-throughput screening.
The next test deals with ENR+CD organoids. Briefly: Primary screen: ATP (CellTiter-Glo 3D, CTG) cell number/viability, 2.5-D 384-well ENR+CD organoids.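 For all read-outs here: compounds given at plating and again on day 3 over a 6-day differentiation from ENR+CV stem-cell-enriched precursors, ATP measured on day 6, plate median as control.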 Conditions: primary screen; for Dose.FC.CTG: FC relative to plate median; for Z.CTG: standard z score.
For test [2], the system named is ENR+CD organoids (ISC to Paneth cell differentiation). Briefly: Primary screen: basal (non-stimulated) lysozyme secretion LYZ.NS, 2.5-D 384-well ENR+CD organoid differentiation. It counts as cell-based, mouse. Conditions: primary screen; for Dose.FC.LYZ.NS: FC relative to plate median; for Z.LYZ.NS: standard z score.
Description: as §1

For `Cc1ccc(NCCCc2ccccc2)c(N)c1` [JSH-23], the “Dose.FC.LYZ.S (log2 fold change)” value is 0.164 in test [1] (dose 0.08 uM), 0.106 in test [1] (dose 0.40 uM), 0.005 in test [1] (dose 2.00 uM) and −0.026 in test [1] (dose 10.00 uM). The “Dose.FC.CTG (log2 fold change)” value with ENR+CD organoids (dose 0.08 uM) is 0.193; in the test on ENR+CD organoids (dose 0.40 uM), 0.230; with ENR+CD organoids (dose 2.00 uM), 0.074; with ENR+CD organoids (dose 10.00 uM) it was 0.046. For the same compound, the “Z.CTG (standard z score)” value in the test with ENR+CD organoids (dose 0.08 uM) is 0.462; with ENR+CD organoids (dose 0.40 uM) it was 0.548; in the test with ENR+CD organoids (dose 2.00 uM), 0.176; with ENR+CD organoids (dose 10.00 uM), 0.110. In addition, the “Dose.FC.LYZ.NS (log2 fold change)” value is given as 0.054 in test [2] (dose 0.08 uM), 0.079 in test [2] (dose 0.40 uM), −0.002 in test [2] (dose 2.00 uM) and −0.046 in test [2] (dose 10.00 uM). Also, the “Z.LYZ.NS (standard z score)” value in test [2] (dose 0.08 uM) is recorded as 0.474; in test [2] (dose 0.40 uM), 0.688; in test [2] (dose 2.00 uM) it was −0.017; in test [2] (dose 10.00 uM), −0.399.
On to `CCN(CC)CC(=O)Nc1c(C)cccc1C` [Lidocaine], for which the “Dose.FC.LYZ.S (log2 fold change)” value is 0.083 in test [1] (dose 0.08 uM), 0.026 in test [1] (dose 0.40 uM), −0.038 in test [1] (dose 2.00 uM) and −0.009 in test [1] (dose 10.00 uM). Besides, the “Dose.FC.CTG (log2 fold change)” value with ENR+CD organoids (dose 0.08 uM) is given as −0.079; in the test on ENR+CD organoids (dose 0.40 uM), −0.153; in the test on ENR+CD organoids (dose 2.00 uM) it was 0.034; with ENR+CD organoids (dose 10.00 uM), −0.256. In addition, the “Dose.FC.LYZ.NS (log2 fold change)” value in test [2] (dose 0.08 uM) is recorded as 0.106; in test [2] (dose 0.40 uM) it was 0.017; in test [2] (dose 2.00 uM), 0.001; in test [2] (dose 10.00 uM), 0.019. The “Z.LYZ.NS (standard z score)” value in test [2] (dose 0.08 uM) is 0.927; in test [2] (dose 0.40 uM), 0.144; in test [2] (dose 2.00 uM) it was 0.008; in test [2] (dose 10.00 uM), 0.167.
`O=C(Nc1ccncc1)c1cc([N+](=O)[O-])ccc1Cl` [T0070907]: the Dose.FC.LYZ.S in test [1] (dose 0.08 uM) is reported as −0.005 log2 fold change; in test [1] (dose 0.40 uM), −0.001 log2 fold change; in test [1] (dose 2.00 uM) it was 0.081 log2 fold change; in test [1] (dose 10.00 uM), −0.312 log2 fold change. The Dose.FC.CTG in the test with ENR+CD organoids (dose 0.08 uM) is 0.112 log2 fold change; in the test with ENR+CD organoids (dose 0.40 uM), 0.026 log2 fold change; in the test on ENR+CD organoids (dose 2.00 uM), 0.050 log2 fold change; in the test with ENR+CD organoids (dose 10.00 uM), −0.756 log2 fold change. Moreover, the Z.CTG with ENR+CD organoids (dose 0.08 uM) is recorded as 0.267; in the test on ENR+CD organoids (dose 0.40 uM), 0.062; in the test on ENR+CD organoids (dose 2.00 uM), 0.119; in the test on ENR+CD organoids (dose 10.00 uM), −1.806. In addition, the Dose.FC.LYZ.NS is 0.010 log2 fold change in test [2] (dose 0.08 uM), −0.003 log2 fold change in test [2] (dose 0.40 uM), 0.043 log2 fold change in test [2] (dose 2.00 uM) and −0.218 log2 fold change in test [2] (dose 10.00 uM). In addition, the Z.LYZ.NS in test [2] (dose 0.08 uM) was 0.084; in test [2] (dose 0.40 uM), −0.029; in test [2] (dose 2.00 uM), 0.373; in test [2] (dose 10.00 uM), −1.897.
